In series [1] the test system is Mus musculus. The series is described as follows: Neurotoxicity in albino CF1 mouse at 100 mg/kg, ip measured after 1 hr. It is filed as toxicity, organism-based. On the set-up: dose 100 mg/kg, route intraperitoneal. Conditions: in vivo.
Series [2] has as its system Mus musculus. Nature of the series: Neurotoxicity in 32 mA current-induced seizure albino CF1 mouse model at 100 mg/kg, ip measured after 1 hr. Conditions: in vivo. More on the design: dose 100 mg/kg, route intraperitoneal. It is filed as toxicity, organism-based.
Series [3] has as its system Mus musculus. Nature of the series: Neurotoxicity in albino CF1 mouse at 100 mg/kg, ip measured after 0.25 hr. It is filed as toxicity, organism-based. On the set-up: dose 100 mg/kg, route intraperitoneal. Conditions: in vivo.
Series [4] relates to Mus musculus. Nature of the series: Anticonvulsant activity in albino CF1 mouse assessed as protection against 32 mA current-induced seizures at 100 mg/kg, ip measured after 1 hr. Type of series: functional, organism-based. On the set-up: dose 100 mg/kg.
Series [5] concerns Mus musculus. The series is described as follows: Anticonvulsant activity in albino CF1 mouse assessed as protection against maximal electroshock-induced seizures at 100 mg/kg, ip measured after 0.25 hr. Type of series: functional, organism-based. More on the design: dose 100 mg/kg.
Series [6] deals with Mus musculus. The series is described as follows: Neurotoxicity in 32 mA current-induced seizure albino CF1 mouse model at 100 mg/kg, ip measured after 0.25 hr. Type of series: toxicity, organism-based. On the set-up: dose 100 mg/kg, route intraperitoneal. Conditions: in vivo.
In series [7] the test system is Mus musculus. Nature of the series: Anticonvulsant activity in albino CF1 mouse assessed as protection against maximal electroshock-induced seizures at 100 mg/kg, ip measured after 1 hr. It is filed as functional, organism-based. On the set-up: dose 100 mg/kg. For orientation: In the maximal electroshock model the usual endpoint is tonic extension of the hind limbs.

Series [8] concerns Mus musculus. Nature of the series: Anticonvulsant activity in albino CF1 mouse assessed as protection against 32 mA current-induced seizures at 100 mg/kg, ip measured after 0.25 hr. Type of series: functional, organism-based. More on the design: dose 100 mg/kg.
The test system of series [9] is Mus musculus. The series is described as follows: Anticonvulsant activity in albino CF1 mouse assessed as protection against subcutaneous metrazol-induced seizures at 100 mg/kg, ip measured after 4 hrs. Type of series: functional, organism-based. More on the design: dose 100 mg/kg.
The subject of series [10] is Mus musculus. The series is described as follows: Neurotoxicity in albino CF1 mouse at 100 mg/kg, ip measured after 4 hrs. Type of series: toxicity, organism-based. More on the design: dose 100 mg/kg, route intraperitoneal. Conditions: in vivo.
Series [11] relates to Mus musculus. Nature of the series: Anticonvulsant activity in albino CF1 mouse assessed as protection against maximal electroshock-induced seizures at 100 mg/kg, ip measured after 4 hrs. It is filed as functional, organism-based. More on the design: dose 100 mg/kg.
The subject of series [12] is Mus musculus. Nature of the series: Anticonvulsant activity in albino CF1 mouse assessed as protection against subcutaneous metrazol-induced seizures at 100 mg/kg, ip measured after 0.5 hr. Type of series: functional, organism-based. More on the design: dose 100 mg/kg.
For series [13], the system named is Mus musculus. Nature of the series: Neurotoxicity in 32 mA current-induced seizure albino CF1 mouse model at 100 mg/kg, ip measured after 2 hrs. It is filed as toxicity, organism-based. On the set-up: dose 100 mg/kg, route intraperitoneal. Conditions: in vivo.
For series [14], the system named is Mus musculus. Nature of the series: Anticonvulsant activity in albino CF1 mouse assessed as protection against 32 mA current-induced seizures at 100 mg/kg, ip measured after 2 hrs. Type of series: functional, organism-based. More on the design: dose 100 mg/kg.
Series [15] concerns Mus musculus. The series is described as follows: Neurotoxicity in 32 mA current-induced seizure albino CF1 mouse model at 100 mg/kg, ip measured after 4 hrs. Conditions: in vivo. More on the design: dose 100 mg/kg, route intraperitoneal. It is filed as toxicity, organism-based.
Series [16] deals with Mus musculus. Nature of the series: Neurotoxicity in albino CF1 mouse at 100 mg/kg, ip measured after 0.5 hr. Type of series: toxicity, organism-based. More on the design: dose 100 mg/kg, route intraperitoneal. Conditions: in vivo.
The subject of series [17] is Mus musculus. The series is described as follows: Anticonvulsant activity in albino CF1 mouse assessed as protection against subcutaneous metrazol-induced seizures at 100 mg/kg, ip measured after 0.25 hr. It is filed as functional, organism-based. More on the design: dose 100 mg/kg.
The test system of series [18] is Mus musculus. Nature of the series: Anticonvulsant activity in albino CF1 mouse assessed as protection against subcutaneous metrazol-induced seizures at 100 mg/kg, ip measured after 1 hr. It is filed as functional, organism-based. More on the design: dose 100 mg/kg.
The subject of series [19] is Mus musculus. The series is described as follows: Anticonvulsant activity in albino CF1 mouse assessed as protection against 32 mA current-induced seizures at 100 mg/kg, ip measured after 4 hrs. Type of series: functional, organism-based. On the set-up: dose 100 mg/kg.
Series [20] deals with Mus musculus. Nature of the series: Anticonvulsant activity in albino CF1 mouse assessed as protection against 32 mA current-induced seizures at 100 mg/kg, ip measured after 0.5 hr. Type of series: functional, organism-based. On the set-up: dose 100 mg/kg.
In series [21] the test system is Mus musculus. The series is described as follows: Neurotoxicity in 32 mA current-induced seizure albino CF1 mouse model at 100 mg/kg, ip measured after 0.5 hr. It is filed as toxicity, organism-based. On the set-up: dose 100 mg/kg, route intraperitoneal. Conditions: in vivo.
The subject of series [22] is Mus musculus. Nature of the series: Anticonvulsant activity in albino CF1 mouse assessed as protection against maximal electroshock-induced seizures at 100 mg/kg, ip measured after 0.5 hr. Type of series: functional, organism-based. On the set-up: dose 100 mg/kg.

Calls of active or inactive are those of the source. The rule behind the calls is not given here.

For the compound `O=C1NC(=O)[C@@H](c2cccc(C(F)(F)F)c2)N2CCCC[C@@H]12`, the Activity result in series [1], in series [2], in [3] and in series [6] was “Non-toxic” throughout. Also, the outcome in series [4], in [5], in [7] and in series [8] was inactive.

On to `O=C1NC(=O)[C@@H]2CCCN2[C@H]1c1c(F)cccc1Cl` (mixture of isomers), for which the result in series [9], in [11], in series [12], in series [4], in series [5] and in series [14] was inactive. For the same compound, the result in [17], in series [18], in series [19], in series [20], in series [7] and in series [22] was inactive. In addition, the outcome in series [8] was inactive. For the same compound, the Activity entry in series [1], in series [10], in [2], in series [3], in series [13] and in series [6] was “Non-toxic” throughout. The Activity result in series [15], in series [16] and in series [21] was “Non-toxic” in each case.

For the compound `Cl.O=C1NC(=O)[C@@H](c2cccc(C(F)(F)F)c2)N2CCC[C@H]12`, the Activity entry in [1], in series [10], in series [2], in series [3], in series [13] and in series [6] was “Non-toxic” in each case. For the same compound, the Activity entry in series [15], in series [16] and in series [21] was “Non-toxic” throughout. The outcome in series [11], in [14], in series [19], in [7] and in series [22] was inactive. For the same compound, the result in series [4], in series [5], in series [20] and in [8] was Active.

For the compound `O=C1NC(=O)[C@H](c2cccc(C(F)(F)F)c2)N2CCCC[C@H]12`, the Activity entry in series [1], in series [2], in series [3] and in series [6] was “Non-toxic” in each case. Besides, the outcome in series [4], in series [5], in series [17], in series [18], in series [7] and in series [8] was inactive.

The values are drawn from ChEMBL document CHEMBL3352057, “Novel fluorinated pyrrolo[1,2-a]pyrazine-2,6-dione derivatives: synthesis and anticonvulsant evaluation in animal models of epilepsy” (Bioorg Med Chem, 2014).
